The target of data set [1] is HCoV-229E nsp10-nsp16 complex (Human coronavirus 229E, UniProt P0C6X1). As to the kind of experiment: biochemical.
Data set [2] concerns the target HCoV-NL63 nsp10-nsp16 complex (Human coronavirus NL63, UniProt P0C6X5). Nature of the data set: biochemical. It counts as biochemical.
Data set [3] addresses SARS-CoV-2 nsp10-nsp16 complex (Severe acute respiratory syndrome coronavirus 2, UniProt P0DTD1). Nature of the data set: biochemical.
Data set [4] addresses HCoV-OC43 nsp10-nsp16 complex (Human coronavirus OC43, UniProt P0C6X6). Nature of the data set: biochemical.
Data set [5] addresses HCoV-HKU1 nsp10-nsp16 complex (Human coronavirus HKU1, UniProt P0C6X3). As to the kind of experiment: biochemical.
Data set [6] deals with C[S+](CC[C@H](N)C(=O)[O-])C[C@H]1O[C@@H](n2cnc3c(N)ncnc32)[C@H](O)[C@@H]1O. Nature of the data set: purified protein, by the assay type. The following applies: pH 7.5; 23.0 °C.

Several values for one entry are separate records, joined by “and”; a condition that tells them apart may be missing. Equal entries are not always repeated. Where two headings read alike, the source gives them in different places.

In general, IC50 refers to the concentration at which inhibition is half-maximal. The term Km denotes the concentration of substrate that gives half-maximal velocity.

Chain of HCoV-HKU1 nsp10-nsp16 complex (P0C6X3 6854-7152 limits assumed): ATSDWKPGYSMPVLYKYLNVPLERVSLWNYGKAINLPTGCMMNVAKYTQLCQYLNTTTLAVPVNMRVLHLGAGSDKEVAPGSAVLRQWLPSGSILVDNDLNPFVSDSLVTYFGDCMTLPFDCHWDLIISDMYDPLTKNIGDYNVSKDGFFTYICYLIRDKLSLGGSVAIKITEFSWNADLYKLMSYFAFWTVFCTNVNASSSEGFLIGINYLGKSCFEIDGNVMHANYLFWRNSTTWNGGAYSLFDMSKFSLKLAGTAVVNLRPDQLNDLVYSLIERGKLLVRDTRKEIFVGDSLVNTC
Chain of HCoV-HKU1 nsp10-nsp16 complex (P0C6X3 4291-4427 partner limits assumed): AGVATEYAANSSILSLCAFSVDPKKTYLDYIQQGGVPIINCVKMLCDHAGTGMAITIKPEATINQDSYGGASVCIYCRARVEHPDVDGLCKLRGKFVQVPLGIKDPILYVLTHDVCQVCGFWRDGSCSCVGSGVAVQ
Chain of HCoV-NL63 nsp10-nsp16 complex (P0C6X5 6430-6729 limits assumed): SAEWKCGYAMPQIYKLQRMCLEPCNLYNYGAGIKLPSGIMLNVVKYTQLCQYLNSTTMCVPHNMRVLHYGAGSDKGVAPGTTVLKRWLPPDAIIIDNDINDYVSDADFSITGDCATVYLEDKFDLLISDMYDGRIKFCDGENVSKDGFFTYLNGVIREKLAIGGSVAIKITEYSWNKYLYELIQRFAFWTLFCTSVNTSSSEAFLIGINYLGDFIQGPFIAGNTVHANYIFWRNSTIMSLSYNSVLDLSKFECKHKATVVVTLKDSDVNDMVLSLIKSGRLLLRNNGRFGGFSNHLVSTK
Chain of HCoV-NL63 nsp10-nsp16 complex (P0C6X5 3909-4043 partner limits assumed): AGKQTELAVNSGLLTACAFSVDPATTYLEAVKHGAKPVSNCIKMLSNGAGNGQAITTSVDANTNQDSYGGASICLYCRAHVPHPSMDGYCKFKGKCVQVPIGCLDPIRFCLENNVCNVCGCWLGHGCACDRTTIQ
Chain of HCoV-OC43 nsp10-nsp16 complex (P0C6X6 6797-7095 limits assumed): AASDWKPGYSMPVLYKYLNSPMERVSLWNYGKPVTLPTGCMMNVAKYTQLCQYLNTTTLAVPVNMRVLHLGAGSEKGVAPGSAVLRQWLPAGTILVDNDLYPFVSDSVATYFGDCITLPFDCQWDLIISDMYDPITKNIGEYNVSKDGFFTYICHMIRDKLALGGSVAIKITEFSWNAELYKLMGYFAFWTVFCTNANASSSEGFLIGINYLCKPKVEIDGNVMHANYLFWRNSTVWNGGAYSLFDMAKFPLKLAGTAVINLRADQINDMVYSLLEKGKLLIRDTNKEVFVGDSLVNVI
Chain of HCoV-OC43 nsp10-nsp16 complex (P0C6X6 4233-4369 partner limits assumed): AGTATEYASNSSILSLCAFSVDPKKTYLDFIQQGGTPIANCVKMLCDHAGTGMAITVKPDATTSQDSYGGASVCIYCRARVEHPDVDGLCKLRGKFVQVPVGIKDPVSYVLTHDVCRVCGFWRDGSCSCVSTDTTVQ
Chain of HCoV-229E nsp10-nsp16 complex (P0C6X1 6459-6758 limits assumed): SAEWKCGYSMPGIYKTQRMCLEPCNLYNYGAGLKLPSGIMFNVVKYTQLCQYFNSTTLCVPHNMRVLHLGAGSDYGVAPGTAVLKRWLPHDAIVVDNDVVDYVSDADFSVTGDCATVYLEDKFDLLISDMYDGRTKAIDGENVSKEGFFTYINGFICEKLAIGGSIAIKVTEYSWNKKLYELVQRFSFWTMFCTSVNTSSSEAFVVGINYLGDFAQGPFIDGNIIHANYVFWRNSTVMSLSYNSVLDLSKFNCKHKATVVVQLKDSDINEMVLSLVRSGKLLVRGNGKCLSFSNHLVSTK
Chain of HCoV-229E nsp10-nsp16 complex (P0C6X1 3934-4068 partner limits assumed): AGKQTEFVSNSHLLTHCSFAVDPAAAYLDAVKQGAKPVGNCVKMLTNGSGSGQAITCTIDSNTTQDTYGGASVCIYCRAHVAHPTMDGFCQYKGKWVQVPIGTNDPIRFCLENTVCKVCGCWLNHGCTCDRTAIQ

Consider `Nc1ncnc2c1ncn2[C@@H]1O[C@H](CSCC[C@H](N)C(=O)O)[C@@H](O)[C@H]1O` [SAH, S-adenosylhomocysteine], for which the concentration for half-maximal inhibition (IC50) in data set [1] was 900 ± 200 nM; in data set [2] (IC50, HCoV-NL63, substrate RNA N7mGpppACCCCC 0.3 μM, 2 μM 3H-SAM), 2400 ± 400 nM; in data set [3] it was 2900 nM and 500 nM; in data set [4], 1400 ± 300 nM; in data set [4] (IC50, HCoV-OC43, substrate RNA N7mGpppACCCCC 0.3 μM, 2 μM 3H-SAM), 4400 ± 1200 nM; in data set [5], 200 ± 50 nM. Besides, in data set [5] (IC50, HCoV-HKU1, substrate RNA N7mGpppACCCCC 0.3 μM, 2 μM 3H-SAM), inhibition was half-maximal at 2100 ± 100 nM (IC50). The “fold lower IC50 with N7mGpppAUUAAA versus N7mGpppACCCCC” value in data set [2] (HCoV-NL63) stood at 30 fold.

As for “HCoV-229E nsp10-nsp16 complex (Human coronavirus 229E)”, in data set [6], the Michaelis constant (Km) was 1.8 ± 0.2 µM.

As for “HCoV-HKU1 nsp10-nsp16 complex (Human coronavirus HKU1 (isolate N2))”, the Michaelis-Menten constant (Km) in data set [6] was 4.8 ± 1.2 µM and 2.3 ± 0.03 µM.

Turning to “HCoV-OC43 nsp10-nsp16 complex (Human coronavirus OC43)”, the Km in data set [6] is 7.1 ± 0.8 µM and 2.9 ± 0.4 µM.

As for “SARS-CoV nsp10-nsp16 complex (Severe acute respiratory syndrome-related coronavirus)”, in data set [6], the Michaelis constant (Km) is 5.7 ± 1.1 µM and 2.6 ± 0.4 µM.

With “SARS-CoV-2 nsp10-nsp16 complex (Severe acute respiratory syndrome coronavirus 2)”, the Km in data set [6] is 5.0 ± 0.7 µM and 2.8 ± 0.4 µM.

(Values after publication PMC9908617 (Biochimica et Biophysica Acta. General Subjects, 2023).)
